Paper PMC4309560, “Creating Novel Activated Factor XI Inhibitors through Fragment Based Lead Generation and Structure Aided Drug Design” (PLoS ONE, 2015)
Like-named read-outs stand apart in the source and are kept apart here.

Assays:
FXIa CD [1] = target: T1, FXIa CD (Homo sapiens, UniProt P03951, C500S/K455A/S452A/T493A); experiment: FXIa surface plasmon resonance (Biacore) inhibition in solution assay; assay type: binding
T1 construct: purification of the catalytic domain (residues 370–607) was carried out as described by Jin et al; made in house
Source text: SPR. […] The SPR data were then used to rank and select compounds for X-ray crystallography experiments. The SPR method was based on an inhibition in solution assay in which compound 4, immobilized on the biosensor surface, served as a probe for the FXIa catalytic site. […] Fig. 4 illustrates the design of compound 4 based on the crystal structure of FXIa in complex with compound 1. Since any ligand that binds to the S1 pocket competes with compound 4 for binding to FXIa CD, it is possible to derive the K D for that ligand [60]. The initial binding rate of the protein to compound 4, K on, was used to determine the percentage of free protein in solution which changed by varying the concentration of the competing ligand. The free protein concentration was plotted against the logarithm of the ligand concentration and a sigmoidal dose–response curve-fit model was applied to determine the K D-value.
The tethered free amine ligand 4 was covalently linked to the dextran layer on the CM5 sensor chip (GE Healthcare/Biacore) using the Amine Coupling Kit (Healthcare/Biacore) and performed according to the manufacturer’s recommendations. Carboxyl groups on the dextran layer were activated by injecting a 1:1 mixture of 0.5 M N-ethyl-N’ (3-dimethylaminopropyl)-carbodiimide and 0.5 M N-hydroxysuccinimide at 10 μL/min for 7 min. The activated carboxyl groups on the control channels were blocked by injecting a 1 M ethanolamine solution for 7 min at 10 μL/min. […] The remaining activated groups were blocked with 1 M ethanolamine. Compounds were tested in a concentration response curve. The compounds were serially diluted 1:3 in DMSO to form a 10-point concentration response curve with 5 mM for the highest concentration. The FXIa CD was added to the plate at a final concentration of 50 nM and the mixture was incubated for 15 min at RT. The plate was then sealed and placed in the Biacore 3000 instrument. Samples were injected at 20 μL/min for 2 min. […] The value used to calculate percent inhibition of binding was the slope of the response measured 8 s after the start of the injection. […]

Human FXIa = target: T2, Human FXIa (Homo sapiens, UniProt P03951); experiment: FXIa enzymatic chromogenic assay; assay type: biochemical
T2 construct: purchased HTI, Essex Junction, USA
Description: (§1) Enzymatic assay. […] Selected compounds were also screened against other serine proteases to evaluate their selectivity profiles.
(§2) Once the compounds were synthesized and characterized, enzymatic assays were performed to evaluate the inhibitory activity of the resulting compounds against FXIa and other serine proteases. […] IC50 values for the compounds were determined using equation: Q= V/(1+([I]/IC50)^n) Q denotes the assay readout, V denotes the uninhibited velocity of the enzyme, [I] denotes the inhibitor concentration, n denotes the slope and IC50 is the inhibitor concentration at V/2.
(§3) [S] denotes the substrate concentration.

FXIa CD [2] = target: T1, FXIa CD; experiment: Ligand detected 1D NMR fragment screen; assay type: binding; conditions: compounds screened at 100 μM, 5 μM FXIa CD
Description: Ligand detected 1D NMR. Compounds were screened at 100 μM in mixtures of six. Weakly binding fragments were identified from intensity changes through measurements on three samples viz. […] The signal from a compound binding with low affinity to FXIa CD decreased upon addition of protein and regained upon addition of a high affinity reference compound. Comparison with reference spectra of individual compounds enabled identification of the binding fragment in a mixture. […] As a positive control, the S1 binding ligand para-methyl-benzamidine (pMeBza), compound 3, was used, and in Fig. 3 the doublet at 7.66 ppm is shown.
NMR samples were prepared in aqueous buffer containing 50 mM deuterated TRIS, pH 7.4, 3 mM NaN3, and 10% D2O. FXIa CD stock solution was buffer exchanged and concentrated to approximately 100 μM (2.7 mg/mL) (UV absorption ε280 = 60390 cm^-1) using 10 kDa cut-off Millipore filter centrifugation tubes. Control experiments with pMeBza and compound 2 were done on all protein preparations (Fig. 3). […]
NMR data were collected at 20 °C on a Bruker Avance III 600 MHz NMR spectrometer equipped with a cryo probe head. 1D ^1H T 1ρ NMR spectra were recorded with 256 scans, 3.2 s interscan delay, 180 ms spin lock time and 64 kHz spin lock field. […]

Caco2 cells = experiment: Caco2 permeability; assay type: in vitro ADME; conditions: measured at pH 6.5
Description: A monolayer of Caco2 cells, cultured on semi-permeable polycarbonate surfaces, was used to study the permeability in the apical to basolateral direction. The process was atomized by a robotic Tecan EVO platform (Männerdorf, Switzerland) and 24-transwell plates from Costar (Cambridge, MA, USA). HBSS buffer pH 7.4 was dispensed to the basal side of the monolayer. […] Samples for quantitative analysis by LC/MS/MS were withdrawn before the addition of the test substrate and at 45 and 120 min post addition of the test substrate. During incubation the transwell plates were placed in a shaking incubator at 37°C between sampling. The peak areas were exported to Excel where Papp-values and recoveries were calculated. Twenty-two reference compounds with known human oral bioavailability were used to establish a correlation curve with Papp versus the fraction of the oral dose absorbed (fa).

rat hepatocytes = experiment: Rat hepatocyte metabolic stability assay; assay type: in vitro ADME
Description: Rat hepatocyte metabolic stability was determined in accordance with the method described by Jacobson et al.. Cryo preserved hepatocytes at a concentration of 10^6 viable cells/mL were used. After thawing, hepatocytes were incubated for 10 min to warm to 37°C and test compounds, dissolved in acetonitrile, were added to give a final concentration of 1 μM. At 0.5, 5, 15, 30, 45, 60, 80, 100 and 120 min, the incubation system was mixed and 20 μL aliquots were transferred at each time point to wells in a separate plate filled with 80 μL acetonitrile to stop the reaction. The quenching plate was then vortexed followed by centrifugation, and supernatants were analyzed by LC/MS/MS. Peak areas were determined from extracted ion chromatograms, and the in vitro intrinsic clearance (in vitro CLint, in μL/min/10^6 cells) of parent compound was calculated from the slope in the regression analysis of the natural logarithm of parent concentration vs. time curve.

Caco2 efflux = assay type: in vitro ADME; conditions: human, Caco-2; Caco2, Papp B to A / Papp A to B, pH 7.4 at side A
Source text: Efflux was studied in the same Caco2 cells with the modification that HBSS buffer pH 7.4 was used on both sides of the monolayer. The permeability was studied in the apical to basolateral direction (Papp AB) as well as in the basolateral to apical direction and (Papp BA). Efflux ratios were derived from the following equation: Papp BA/Papp AB.

Human PKK = target: T3, Human PKK (Homo sapiens, UniProt P03952); experiment: PKK (plasma kallikrein) chromogenic assay; assay type: biochemical; conditions: for Ki: converted from IC50
T3 construct: trypsin, plasma kallikrein (PKK), FIXa; purchased Calbiochem, Darmstadt, Germany
Description: as §1, §2, §3
PKK. Human PKK was from Calbiochem, Darmstadt, Germany.

[3] = Chromatographic determination of lipophilicity; assay type: physicochemical; conditions: reversed-phase UPLC, Waters BEH C18 stationary phase, pH 7.4; measured by liquid chromatography, pH7.4
Source text: The chromatographic data was obtained utilizing a Waters Aquity UPLC chromatographic system running a gradient from 5–95% acetonitrile at pH7.4. The stationary phase was a Waters BEH C18 2.1x50 mm. Standardized retention data were obtained by normalization against a set of compounds with precisely determined (octanol/water) logD-values. Lipophilicity values for samples were derived from a corresponding calibration curve.

In vivo rat PK = conditions: female, Sprague Dawley, plasma
Description: Two days prior to dosing, female Sprague Dawley rats were prepared by cannulation of the left carotid artery for blood sampling and by cannulation of the right jugular vein for intravenous administration. The catheters were filled with heparin (100 IU/mL), exteriorized at the nape of the neck and sealed. The surgery was performed under isoflurane (Forene®, Abbott) anesthesia. After surgery the rats were housed individually and had free access to food and water. About 16 h prior to dosing the animals were deprived of food, and fasted until 4 h after dosing. The rats had free access to drinking water during the experiment. On the experiment day, the test item formulation was administered orally by gavage or intravenously in the jugular vein. At pre-defined time points, blood samples of about 0.150 mL were withdrawn from the carotid artery up to 24h after dosing. A total of 10 samples were withdrawn. The blood samples were collected in heparinized plastic tubes and centrifuged, within 30 min, for five min at 10 000 g and +4°C. The plasma was transferred to a 96 well plate and stored at -20°C until analysis by LC/MS/MS. The studies were approved by the Göteborg Animal Research Ethical Board.

FXIa = test system: FXIa; set-up: method as in PMID 17597608; conditions: irreversible inhibition; cited from earlier work
rat models = test system: rat models; set-up: method as in PMID 17597608; conditions: cited from earlier work
[4] = Precipitation in FXIa potency measurement; assay type: physicochemical

T3 sequence (P03952 391-638 limits assumed): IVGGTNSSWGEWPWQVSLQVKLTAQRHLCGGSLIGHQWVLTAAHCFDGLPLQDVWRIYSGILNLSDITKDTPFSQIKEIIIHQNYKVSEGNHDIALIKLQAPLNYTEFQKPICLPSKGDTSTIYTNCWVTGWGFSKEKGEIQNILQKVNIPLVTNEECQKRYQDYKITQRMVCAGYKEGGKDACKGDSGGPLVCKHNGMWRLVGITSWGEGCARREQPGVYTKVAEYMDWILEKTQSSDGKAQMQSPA
T3 sequence (P03952 20-390 partner limits assumed): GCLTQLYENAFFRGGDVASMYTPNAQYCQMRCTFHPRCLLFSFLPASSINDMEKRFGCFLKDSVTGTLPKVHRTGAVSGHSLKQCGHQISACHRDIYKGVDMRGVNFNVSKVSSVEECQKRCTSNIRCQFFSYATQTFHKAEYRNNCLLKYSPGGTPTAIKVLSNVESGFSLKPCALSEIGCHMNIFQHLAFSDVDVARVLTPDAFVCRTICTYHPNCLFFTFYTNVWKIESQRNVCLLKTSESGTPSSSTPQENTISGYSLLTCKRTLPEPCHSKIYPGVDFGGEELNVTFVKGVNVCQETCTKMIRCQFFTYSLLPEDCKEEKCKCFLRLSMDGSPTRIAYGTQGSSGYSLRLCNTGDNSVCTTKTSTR
T1 sequence (P03951 388-625 S452A/K455A/T493A/C500S): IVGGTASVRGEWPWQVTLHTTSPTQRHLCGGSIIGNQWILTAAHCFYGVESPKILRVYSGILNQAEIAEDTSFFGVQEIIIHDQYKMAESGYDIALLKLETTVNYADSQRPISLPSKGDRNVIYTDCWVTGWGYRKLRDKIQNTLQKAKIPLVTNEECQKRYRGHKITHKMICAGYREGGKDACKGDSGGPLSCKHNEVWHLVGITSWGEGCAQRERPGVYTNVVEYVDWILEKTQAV
T2 sequence (P03951 388-625): as the sequence (P03951 388-625 S452A/K455A/T493A/C500S) above, with A65S, A68K, A106T, S113C counted along it
T2 sequence (P03951 19-387): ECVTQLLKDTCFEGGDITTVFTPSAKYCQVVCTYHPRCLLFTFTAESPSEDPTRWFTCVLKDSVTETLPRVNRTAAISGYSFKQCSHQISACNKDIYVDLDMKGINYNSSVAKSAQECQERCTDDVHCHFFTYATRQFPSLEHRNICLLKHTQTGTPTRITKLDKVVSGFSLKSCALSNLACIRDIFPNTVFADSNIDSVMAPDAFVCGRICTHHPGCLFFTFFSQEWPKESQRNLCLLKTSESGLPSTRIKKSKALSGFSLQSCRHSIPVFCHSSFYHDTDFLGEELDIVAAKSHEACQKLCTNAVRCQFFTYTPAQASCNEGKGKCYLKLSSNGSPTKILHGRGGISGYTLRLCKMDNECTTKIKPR

`N=C(N)c1ccc2cc(C(=O)Nc3cccc(OCCOCCN)c3)cc(Nc3ncccn3)c2c1` [Compound 4, N-(3-(2-(2-aminoethoxy)ethoxy)phenyl)-6-carbamimidoyl-4-(pyrimidin-2-ylamino)-2-naphthamide, reference compound] gave a Kd (FXIa CD [1]) of 0.39 µM, an IC50 (Human FXIa) of 0.24 µM and a Ki (Human FXIa) of 0.12 µM.
In the case of “6-methyl-3,4-dihydro-1H-quinolin-2-one [Compound 17]”, the “hit in NMR screen” value (FXIa CD [2]) is reported as “not identified as a hit in NMR” and the “FXIa % inh. at 1 mM” value (Human FXIa; 1 mM) is reported as 20%.
For `Cc1c(-c2ccccc2)n[nH]c1C(=O)N(C)Cc1cc(=O)[nH]c2ccc(Cl)cc12` [Compound 28, N-{(6-Chloro-2-oxo-1,2-dihydroquinolin-4-yl)methyl}-N,4-dimethyl-3-phenyl-1H-pyrazole-5-carboxamide], the “Caco2 A to B permeability” value (Caco2 cells) was 19 1·10^-6 cm/s, the “Rat CLint” value (rat hepatocytes) was 21 μL/min/ 1·10^6 cells and the efflux ratio (Caco2 efflux) was 1.6. It also gave an IC50 (Human PKK) of 8.4 µM, a Ki (Human PKK) of 1.7 µM and an IC50 (Human FXIa) of 0.82 µM. The Ki (Human FXIa) was 0.41 µM, the chromatographic logD [3] was 2.7 and the clearance (In vivo rat PK; intravenous, rat in vivo, read-out: Rat CL (in vivo clearance)) was 18 mL/min/kg. It also gave a bioavailability (In vivo rat PK; rat, oral) of 27%.
In the case of `CC(C)(C)NC(=O)N1CCN(C(=O)N2C(=O)[C@H](CCCN=C(N)N)[C@H]2C(=O)O)CC1` [BMS-262084], the IC50 (FXIa) is given as 0.0028 µM and the “in vivo antithrombotic efficacy” value (rat models) is given as “demonstrated in vivo antithrombotic efficacy”.
For `CNC(=O)[C@H](Cc1ccccc1)NC(=O)c1ccc2[nH]c(=O)cc(O)c2c1` [Compound 15, (S)-4-Hydroxy-N-(1-(methylamino)-1-oxo-3-phenylpropan-2-yl)-2-oxo-1,2-dihydroquinoline-6-carboxamide], the Kd (FXIa CD [1]; read-out: FXIa KD) was 1400 µM, the “ligand efficiency (LE)” value (Human FXIa; FXIa) was 0.15 and the “-ΔG fragment (printed with reversed sign in the ΔG link equation)” value (Human FXIa; FXIa, subtracted term, so ΔG itself is negative) was 3.9 kcal/mol.
With `CN(Cc1cc(=O)[nH]c2ccc(Cl)cc12)C(=O)[C@H](Cc1ccccc1)NC(=O)c1ccc2[nH]c(=O)cc(O)c2c1` [Compound 25, (S)-N-(1-[{(6-Chloro-2-oxo-1,2-dihydroquinolin-4-yl)methyl}(methyl)amino]-1-oxo-3-phenylpropan-2-yl)-4-hydroxy-2-oxo-1,2-dihydroquinoline-6-carboxamide] the “Caco2 A to B permeability” value (Caco2 cells) was 0.28 1·10^-6 cm/s, the “Rat CLint” value (rat hepatocytes) was 10 μL/min/ 1·10^6 cells and the efflux ratio (Caco2 efflux) was 5.2. For the same molecule, the IC50 (Human FXIa) was < 0.005 µM, the inhibition at 0.005 µM (Human FXIa; read-out: FXIa % inh. at 5 nM) was 85% and the chromatographic logD [3] was 1.3.
With `Cc1cc(=O)[nH]c2ccc(Cl)cc12` [Compound 12] the “Precipitates at higher concentration than” value [4] was > 111 µM and the inhibition at 111 µM (Human FXIa; read-out: FXIa % inh. at 111 μM) was 43%.
With `Nc1ccc2c(CNC(=O)[C@H](Cc3ccccc3)NC(=O)c3ccc4[nH]c(=O)cc(O)c4c3)cccc2n1` [Compound 8, (S)-N-(1-{(2-Aminoquinolin-5-yl)methylamino}-1-oxo-3-phenylpropan-2-yl)-4-hydroxy-2-oxo-1,2-dihydroquinoline-6-carboxamide] the IC50 (Human PKK) was 7.2 µM, the “selectivity vs. PKK” value (Human PKK; FXIa over PKK, for 13 based on Ki values) was “about 25 fold” and the Ki (Human PKK) was 1.5 µM. For the same molecule, the IC50 (Human FXIa) was 0.12 µM, the Ki (Human FXIa) was 0.06 µM and the pKa (Experimental pKa) was 7.1.
